Counter-ions that a name gives are not always drawn. Like-named read-outs stand apart in the source and are kept apart here.
Assays:
Female CFLP mice [1] = assay: Anti-hyperglycaemic activity: subcutaneous glucose load in fasted mice, area under blood glucose curve; type: in vivo; details: glucose 1 g/kg sc, 2 hour period, vs water control
Procedure: Female CFLP mice, each weighing approximately 25 g, were fasted for 24 hours prior to the study. The compounds under study were administered orally as an aqueous solution to each of 6 mice. 6 mice were given water as a control. 30 minutes later a blood sample (20 µl) was obtained from the tail for the analysis of blood glucose. Immediately after taking this blood sample, glucose (1 g/kg body weight) was administered subcutaneously to each mouse. Blood samples were then obtained from each mouse at 30 minute intervals for 120 minutes.
Compounds that produced a significant (P<0.05) reduction of blood glucose, compared with control mice given water, at any time interval, were considered active. The area under the blood glucose curve over the 2 hour period after the administration of the glucose was calculated for each compound and compared with the value for control animals.

Female CFLP mice [2] = assay: Effect on energy expenditure and food intake of mice; type: in vivo; details: Mus musculus, po, 21 h
Procedure: Female CFLP mice each weighing approximately 24 g, were given food and water ad lib before and during the experiment. The compounds were dissolved in water by addition of one mole of hydrochloric acid per mole of compound and these solutions were administered orally to each of 12 mice. A further 12 mice were dosed orally with water. The mice were placed in boxes through which air was drawn and the oxygen content of the air leaving the boxes was measured. […] The food intake of the mice was measured over this same period of 21 hours. The results are expressed as a percentage of the mean food intake or rate of energy expenditure of the mice dosed with water.

Rat hearts = assay: Cardiac activity: rat hearts perfused by the Langendorff procedure
Procedure: Rat hearts were perfused by the Langendorff procedure as follows:- • Hearts were dissected free within 30 seconds of death and reverse perfused via the aorta and coronary vessels with Krebs-Ringer bicarbonate solution (pH 7.4, 37°C) gassed with 95% oxygen:5% carbon dioxide at a flow rate between 8-12 cm^3/minute. Responses were observed after injection of drug dissolved in isotonic saline into the perfusion media.
Results are expressed as a percentage of the maximum response due to salbutamol.

genetically obese mice = assay: Anti-obesity activity: carcass composition after 28 days of daily dosing; type: in vivo
Procedure: The compounds were administered by oral gavage in water or carboxymethyl-cellulose suspension to genetically obese mice daily for 28 days. At the end of the time the carcass composition was determined. The results obtained were as follows:-

[3] = tested on: platelet aggregation in human whole blood; assay: Collagen-induced platelet aggregation in human whole blood in vitro; type: cell-based; details: Final Concentration in Whole Blood 100 μM; collagen EC50 in presence of compound divided by control EC50
Procedure: Collagen-induced platelet aggregation in human whole blood in vitro.
Collagen added to stirred citrated blood causes platelet aggregation. As the platelets aggregate, the concentration of single platelets falls. […] Inhibitors of aggregation, such as aspirin and dipyridamole, reduce the response to collagen.
Collagen (Hormon-Chemie, Munich) or 154 mM NaCl (control) was added to each aliquot of blood stirred at 1100 rpm in an aggregometer at 37° after 3 mins pre-incubation with compound or appropriate solvent. Aggregates were fixed by addition of 0.5 vol 4.5% formaldehyde or 0.05 vol phosphate-buffered glutaraldehyde. Single platelets were counted electronically. Responses, expressed as per cent fall in platelet count, were obtained to a range of collagen concentrations. The concentration producing 50% maximal effect (EC50) was estimated from log10 concentration-response curves. Dose-ratios were calculated by dividing the EC50 obtained in the presence of compound under test by the control EC50.

rat ear = assay: Anti-inflammatory activity: croton oil induced inflammation of the rat ear; type: in vivo; details: 1.35 mg/rat ear, topical in 1% croton oil in tetrahydrofuran, ear weight after 6 hours; active = significant (5% level) reduction
Procedure: The method used is based on that described by G. Tonelli eta/ (Endocrinology, 77, 625-634, 1965). An inflammation is induced in the rat ear by the application of 50 µl of a 1% solution of croton oil in tetrahydrofuran, test compounds being dissolved in the irritant vehicle. After 6 hours the inflammation is assessed by killing the animals and weighing the ears. Topical anti-inflammatory activity of a compound is generally considered to be shown when a significant (5% level) reduction in ear weight is seen compared to non-drug treated control.

[4] = read-out: Mean Energy Expenditure (%)
[5] = 10 μg added to perfusate, perfused rat heart, read-out: Heart Rate
[6] = 10 μg added to perfusate, perfused rat heart, read-out: Heart Tension
[7] = Rattus norvegicus, read-out: Heart Rate
[8] = Rattus norvegicus, read-out: Heart Tension
[9] = 30 μg added to perfusate, perfused rat heart, read-out: Heart Rate
[10] = 30 μg added to perfusate, perfused rat heart, read-out: Heart Tension

## CNCCOc1ccc(CC(C)NCC(O)c2cccc(C(F)(F)F)c2)cc1 (stereo not shown) [Example 1, N-[2-(4-(2-Methylaminoethoxy)phenyl)-1-methylethyll-2-hydroxy-2-(3-trifluoromethylphenyl)ethanaminedihydrochloride]
Female CFLP mice [1]; 1 μ moles/kg po
  Reduction in area under Blood glucose curve (%): 33%
Female CFLP mice [2]; [4]
  response vs control in vivo at 26.1 mg/kg: 129%
Female CFLP mice [2]; read-out: Mean Food Intake (%)
  response vs control in vivo at 26.1 mg/kg: 98%
Rat hearts; [5]
  Emax at 0.01 mg: 0%
Rat hearts; [6]
  Emax at 0.01 mg: 7%

## CNCCOc1ccc(CC(C)NCC(O)c2cccc(C(F)(F)F)c2)cc1 (stereo not shown) [Example 1a, N-[2-(4-(2-Methylaminoethoxy)phenyl)-1-methylethyll-2-hydroxy-2-(3-trifluoromethylphenyl)ethanaminedihydrochloride]
Female CFLP mice [2]; [4]
  response vs control in vivo at 2.61 mg/kg: 120%
Female CFLP mice [2]; read-out: Mean Food Intake (%)
  response vs control in vivo at 2.61 mg/kg: 94%
Genetically obese mice; 13.1 mg/kg p.o. daily for 28 days, Control 19.13
  g Lipid/Mouse Treated: 12.54 g Lipid/Mouse

## CC(Cc1ccc(OCCN(C)C)cc1)NCC(O)c1cccc(C(F)(F)F)c1.Cl.Cl (stereo not shown) [Example 2, N-[2-(4-(2-Dimethylaminoethoxy)phenyl)-1-methylethyl]-2-hydroxy-2-(3-trifluoromethylphenyl)ethanamine dihydrochloride]
Female CFLP mice [1]; 5 μ moles/kg po
  Reduction in area under Blood glucose curve (%): 49%
Female CFLP mice [2]; [4]
  response vs control in vivo at 26.9 mg/kg: 127%
Female CFLP mice [2]; read-out: Mean Food Intake (%)
  response vs control in vivo at 26.9 mg/kg: 98%
Rat hearts; [7]
  Emax at 0.01 mg: 0%
Rat hearts; [8]
  Emax at 0.01 mg: 0%

## CC(Cc1ccc(OCCNS(C)(=O)=O)cc1)NCC(O)c1cccc(C(F)(F)F)c1 (stereo not shown) [Example 3, N-[2-(4-(2-Methylsulphonylaminoethoxy)phenyl)-1-methylethyl]-2-hydroxy-2-(3-trifluoromethylphenyl)ethanamine]
Female CFLP mice [1]; 1 μ moles/kg po
  Reduction in area under Blood glucose curve (%): 56%
Female CFLP mice [2]; [4]
  response vs control in vivo at 25.6 mg/kg: 125%
Female CFLP mice [2]; read-out: Mean Food Intake (%)
  response vs control in vivo at 25.6 mg/kg: 83%
Rat hearts; [5]
  Emax at 0.01 mg: 38%
Rat hearts; [6]
  Emax at 0.01 mg: 4%

## Br.Br.CNCCOc1ccc(CC(C)NCC(O)c2ccccc2F)cc1 (stereo not shown) [Example 7, N-[2-(4-(2-Methylaminoethoxy)phenyl)-1-methylethyl]-2-hydroxy-2-(2-fluorophenyl)ethanamine dihydrobromide]
Female CFLP mice [1]; 1 μ moles/kg po
  Reduction in area under Blood glucose curve (%): 33%
Female CFLP mice [2]; [4]
  response vs control in vivo at 28.3 mg/kg: 125%
Female CFLP mice [2]; read-out: Mean Food Intake (%)
  response vs control in vivo at 28.3 mg/kg: 109%
Rat hearts; [7]
  Emax at 0.01 mg: 73%
Rat hearts; [8]
  Emax at 0.01 mg: 18%

## Br.Br.CNCCOc1ccc(CC(C)NCC(O)c2cccc(Br)c2)cc1 (stereo not shown) [Example 8, N-[2-(4-(2-Methylaminoethoxy)phenyl)-1-methylethyl]-2-hydroxy-2-(3-bromophenyl)ethanamine dihydrobromide]
Female CFLP mice [1]; 1 μ moles/kg po
  Reduction in area under Blood glucose curve (%): 51%
Female CFLP mice [2]; [4]
  response vs control in vivo at 31.6 mg/kg: 135%
Female CFLP mice [2]; read-out: Mean Food Intake (%)
  response vs control in vivo at 31.6 mg/kg: 97%
Rat hearts; [7]
  Emax at 0.01 mg: 73%
Rat hearts; [8]
  Emax at 0.01 mg: 20%
[3]
  Dose-Ratio: 4.8
Genetically obese mice; 15.8 mg/kg p.o. daily for 28 days, Control 19.89
  g Lipid/Mouse Treated: 17.91 g Lipid/Mouse

## CNCCOc1ccc(CC(C)NCC(O)c2cccc(F)c2)cc1 (stereo not shown) [Example 9, N-[2-(4-(2-Methylaminoethoxy)phenyl-1-methylethyl]-2-hydroxy-2-(3-fluorophenyl)ethanaminedihydrobromide]
Female CFLP mice [1]; 1 μ moles/kg po
  Reduction in area under Blood glucose curve (%): 39%
Female CFLP mice [2]; [4]
  response vs control in vivo at 28.3 mg/kg: 129%
Female CFLP mice [2]; read-out: Mean Food Intake (%)
  response vs control in vivo at 28.3 mg/kg: 109%
Rat hearts; [5]
  Emax at 0.01 mg: 73%
Rat hearts; [6]
  Emax at 0.01 mg: 53%

## CNCCOc1ccc(CC(C)NCC(O)c2ccccc2)cc1 (stereo not shown) [Example 10, N-[2-(4-(2-Methylaminoethoxy)phenyl-1-methylethyl]-2-hydroxy-2-phenylethanaminedihydrobromide]
Female CFLP mice [1]; 1 μ moles/kg po
  Reduction in area under Blood glucose curve (%): 30%
Female CFLP mice [2]; [4]
  response vs control in vivo at 27.3 mg/kg: 118%
Female CFLP mice [2]; read-out: Mean Food Intake (%)
  response vs control in vivo at 27.3 mg/kg: 89%
Rat hearts; [5]
  Emax at 0.01 mg: 14%
Rat hearts; [6]
  Emax at 0.01 mg: 33%

## CNCCOc1ccc(CC(C)NCC(O)c2cccc(Cl)c2F)cc1.Cl.Cl (stereo not shown) [Example 11, N-[2-(4-(2-Methylaminoethoxy)phenyl)-1-methylethyl]-2-hydroxy-2-(2-fluoro-3-chlorophenyl)ethanamine dihydrochloride]
Female CFLP mice [1]; 1 μ moles/kg po
  Reduction in area under Blood glucose curve (%): 64%
Female CFLP mice [2]; [4]
  response vs control in vivo at 25.3 mg/kg: 148%
Female CFLP mice [2]; read-out: Mean Food Intake (%)
  response vs control in vivo at 25.3 mg/kg: 79%
Rat hearts; [7]
  Emax at 0.01 mg: 45%
Rat hearts; [8]
  Emax at 0.01 mg: 60%

## CC(Cc1ccc(OCCN2CCCCC2)cc1)NCC(O)c1cccc(Cl)c1 (stereo not shown) [Example 14, N-[2-(4-(2-(1-Piperidine)ethoxy)phenyl)-1-methylethyl]-2-hydroxy-2-(3-chlorophenyl)ethanamine dihydrochloride]
Female CFLP mice [1]; 1 μ moles/kg po
  Reduction in area under Blood glucose curve (%): 68%
Female CFLP mice [2]; [4]
  response vs control in vivo at 23.9 mg/kg: 141%
Female CFLP mice [2]; read-out: Mean Food Intake (%)
  response vs control in vivo at 23.9 mg/kg: 111%
Rat hearts; [9]
  Emax at 0.03 mg: 0%
Rat hearts; [10]
  Emax at 0.03 mg: 0%
Genetically obese mice; 3.61 mg/kg p.o. daily for 28 days, Control 22.90
  g Lipid/Mouse Treated: 19.83 g Lipid/Mouse

## CC(Cc1ccc(OCCNCc2ccccc2)cc1)NCC(O)c1cccc(C(F)(F)F)c1 (stereo not shown) [Example 18, N-[2-(4-(2-Benzylaminoethoxy)phenyl)-1-methylethyl]-2-hydroxy-2-(3-trifluoromethylphenyl)ethanamine]
Female CFLP mice [1]; 2.5 μ moles/kg po
  Reduction in area under Blood glucose curve (%): 50%
Female CFLP mice [2]; [4]
  response vs control in vivo at 26.3 mg/kg: 131%
Female CFLP mice [2]; read-out: Mean Food Intake (%)
  response vs control in vivo at 26.3 mg/kg: 80%
Rat hearts; [9]
  Emax at 0.03 mg: 12%
Rat hearts; [10]
  Emax at 0.03 mg: 7%

## CCOC(=O)NCCOc1ccc(CC(C)NCC(O)c2cccc(C(F)(F)F)c2)cc1 (stereo not shown) [Example 20, N-[2-(4-(2-Ethoxycarbonylaminoethoxy)phenyl)-1-methylethyl]-2-hydroxy-2-(3-trifluoromethylphenyl)-ethanamine]
Female CFLP mice [1]; 2.5 μ moles/kg po
  Reduction in area under Blood glucose curve (%): 36%
Female CFLP mice [2]; [4]
  response vs control in vivo at 25.3 mg/kg: 115%
Female CFLP mice [2]; read-out: Mean Food Intake (%)
  response vs control in vivo at 25.3 mg/kg: 86%
Rat hearts; [9]
  Emax at 0.03 mg: 12%
Rat hearts; [10]
  Emax at 0.03 mg: 0%

## CC(=O)NCCOc1ccc(CC(C)NCC(O)c2cccc(C(F)(F)F)c2)cc1 (stereo not shown) [Example 21, N-[2-(4-(2-Acetylaminoethoxy)phenyl)-1-methylethyl]-2-hydroxy-2-(3-trifluoromethylphenyl)ethanamine]
Female CFLP mice [1]; 2.5 μ moles/kg po
  Reduction in area under Blood glucose curve (%): 44%
Female CFLP mice [2]; [4]
  response vs control in vivo at 23.6 mg/kg: 119%
Female CFLP mice [2]; read-out: Mean Food Intake (%)
  response vs control in vivo at 23.6 mg/kg: 102%
Rat hearts; [9]
  Emax at 0.03 mg: 22%
Rat hearts; [10]
  Emax at 0.03 mg: 24%

## CNCCOc1ccc(CC(C)NCC(O)c2cccc(Cl)c2)cc1.Cl.Cl (stereo not shown) [Example 22, N-[2-(4-(2-Methylaminoethoxy)phenyl)-1-methylethyl]-2-hydroxy-2-(3-chlorophenyl)ethanamine dihydrochloride]
Female CFLP mice [1]; 1 μ moles/kg po
  Reduction in area under Blood glucose curve (%): 43%
Female CFLP mice [2]; [4]
  response vs control in vivo at 24.3 mg/kg: 124%
Female CFLP mice [2]; read-out: Mean Food Intake (%)
  response vs control in vivo at 24.3 mg/kg: 84%
Rat hearts; [7]
  Emax at 0.03 mg: 57%
Rat hearts; [8]
  Emax at 0.03 mg: 22%

## CNCCOc1ccc(C[C@@H](C)NC[C@H](O)c2cccc(C(F)(F)F)c2)cc1 [Example 24, N-[2-(4-(2-Methylaminoethoxy)phenyl)-1-methylethyl]-2-hydroxy-2-(3-trifluoromethylphenyl)ethanamine dihydrochloride (RR,SS) diastereoisomer]
Female CFLP mice [1]; 1 μ moles/kg po
  Reduction in area under Blood glucose curve (%): 47%
Female CFLP mice [2]; [4]
  response vs control in vivo at 6.6 mg/kg: 139%
Female CFLP mice [2]; read-out: Mean Food Intake (%)
  response vs control in vivo at 6.6 mg/kg: 102%
[3]
  Dose-Ratio: 5.9
Rat ear
  Activity: Active

— patent EP0070133B1, “Secondary phenylethanol amines, processes for their preparation and their pharmaceutical application” (priority 1981, dated 1983)
